{"source": "patent US8647867B2", "about": "“Cell cultivation method and cell culture” (National University Corportion Okayama University, priority 2005, dated 2014)", "key": {"porcine hepatocyte [1]": {"system": "porcine hepatocyte", "test": "Metabolic ability of diazepam in cultured porcine hepatocyte", "experimental": "Large white male pigs (body weight: 15 to 20 kg) were used. 1.5 ml of ketalar for intramuscular injection was injected to cause sedation and then, auricular vein was acquired and 5 mg/kg of isozol and 1 mg/kg of musculax were administered intravenously to obtain muscle relaxation. After endotracheal intubation, peritoneotomy was performed under general anesthesia with sevoflurene under controlled ventilation by an artificial respirator. A liver lateral region of the pig was surgically excised (about 80 g), perfusion was performed through excised cross-section portal vein and hepatic vein. First, the excised liver was perfused with a primary perfusion solution (sodium chloride 9 g/L, potassium chloride 0.42 g/L, sodium hydrogen carbonate 2.1 g/L, glucose 0.9 g/L, HEPES 4.78 g/L, ethylenediamine tetraacetic acid (EDTA) 0.37 g/L), subsequently, perfused with a secondary perfusion solution containing no EDTA (sodium chloride 9 g/L, potassium chloride 0.42 g/L, sodium hydrogen carbonate 2.1 g/L, glucose 0.9 g/L, HEPES 4.78 g/L). Thereafter, perfusion of the liver, kept at 39° C., was done with a dispase solution (sodium chloride 9 g/L, potassium chloride 0.42 g/L, sodium hydrogen carbonate 2.1 g/L, glucose 0.9 g/L, HEPES 4.78 g/L, dispase 8.4 g/L) (available from Godo Shusei K. K., Tokyo, Japan) and finally, with a collagenase solution (sodium chloride 9 g/L, potassium chloride 0.42 g/L, sodium hydrogen carbonate 2.1 g/L, glucose 0.9 g/L, HEPES 4.78 g/L, collagenase 0.5 g/L (available from Nitta Gelatin Inc., Osaka, Japan), calcium chloride monohydrate 0.55 g/L). […]\nThe metabolic abilities of diazepam in cultured porcine hepatocyte were measured and compared between groups A and B. Diazepam (1 pg/ml) was added to porcine hepatocyte media on days 1, 7 and 14 of culture, and the concentration of diazepam in the media after 24 hours was measured (entrusted to SRL K. K.), and the metabolic rate was calculated."}, "human hepatocyte [2]": {"system": "human hepatocyte", "test": "Metabolic ability of ammonia in cultured human hepatocyte", "assay_type": "cell-based", "conditions": "culture without insert; for ammonia metabolic rate: ammonium sulfate 0.56 mM, after 24 hours", "description": "(§1) Donor liver judged to be unsuitable for transplantation in the United States was obtained from National Disease Research Interchange via HUMAN & ANIMAL BRIDGING […] ORGANIZATION laboratory (Ichikawa city, Chiba prefecture, responsible person) in the form of liver block (130 g) which was then separated into hepatocyte in the same manner as for the above-described isolation of porcine hepatocyte in Example 1."}, "human hepatocyte [3]": {"system": "human hepatocyte", "test": "Morphological study of cultured human hepatocyte by phase-contrast and electron microscope", "assay_type": "cell-based", "conditions": "culture without insert, phase-contrast microscope days 1 and 5, electron microscope day 5", "description": "as §1\nRecently, it has been known that when three-dimensional culture of cells is performed on scaffold, cell functions are improved and maintained. […] In contrast, human hepatocytes cultured with collagen type I (monolayer) (group B) adhered in flat form to the surface of the culture flask (see, Photograph 1 in FIG. 7(a)). […] As a result, it was clarified that it is more suitable for culture of human hepatocyte to use PuraMatrix of SEQ ID NO:1."}, "human pancreatic islet": {"system": "human pancreatic islet", "test": "Insulin production ability of cultured human pancreatic islet", "assay_type": "cell-based", "description": "Healthy isolated human pancreatic islets provided from Alberta University in Canada (those skilled in the art can obtain them from Canada, Alberta University, human pancreatic islet transplantation program, Dr. Jonathan R T. Lakey) were seeded in a T25 10 culture flask.\nInsulin production abilities of cultured human pancreatic islet were determined and compared between groups A and B. Using low glucose DMEM (glucose concentration: […]) (available from GIBCO, Oakland, N.J.) supplemented with 10% FCS, nicotineamide 10 mM and penicillin G/streptomycin, cells were cultured for 24 hours until 60% confluency (low glucose). Then, the medium was changed for high glucose DMEM (glucose concentration: […]) (available from GIBCO, Oakland, N.J.) supplemented with 10% FCS, nicotineamide 10 mM and penicillin G/streptomycin, and cells were cultured for 6 hours (high glucose). After high glucose culture, the medium was exchanged for low glucose DMEM and cells were cultured for 6 hours (low glucose (after)). After respective culture operations, the production amount of insulin in the culture medium (μg/l) was determined by an immunostaining method using a rabbit anti-human insulin antibody (available from DakoCytomation K. K., Kyoto, Japan)."}, "porcine pancreatic islet": {"system": "porcine pancreatic islet", "test": "Morphological study of cultured porcine pancreatic islet by electron microscope (morphological criteria, points)", "assay_type": "cell-based", "conditions": "porcine pancreatic islets, day 5 of culture", "description": "As the inspection method of cultured pancreatic islets, a method is mentioned in which the following 4 items as morphological criteria are evaluated at 5 levels (1 to 5 points) (see, literature: Matsumoto S, Qualley S A, Goel S, et al., Effect of the two-layer (University of Wisconsin solution-Perfluorochemical plus 02) method of pancreas preservation on human islet isolation as assessed by Edmonton isolation protocol. Transplantation 2002; 74: 1414).\nEvaluation is performed at 5 levels of “flat: 1 point”, “approximately flat: 2 points”, “irregularly spherical: 3 points”, “approximately spherical: 4 points”, and “spherical: 5 points”.\nEvaluation is performed at 5 levels of “irregular: 1 point”, “approximately irregular: 2 points”, “somewhat well-rounded: 3 points”, “approximately well-rounded: 4 points”, and “well-rounded: 5 points”. Among these, “well-rounded: 5 points” is most preferable.\nEvaluation is performed at 5 levels of “fragmented: 1 point”, “approximately fragmented: 2 points”, “somewhat solid/compact: 3 points”, “approximately solid/compact: 4 points”, and “solid/compact: 5 points”. Among these, “solid/compact: 5 points” is most preferable.\nEvaluation is performed at 5 levels of “smaller than 100 μm for individual cultured pancreatic islets (all <100 μm): 1 point”, “100 to 150 μm for individual cultured pancreatic islets: 2 points”, “[…] for individual cultured pancreatic islets: 3 points”, “150 to 200 μm for individual cultured pancreatic islets: 4 points”, and “larger than 200 μm for at least 10% of individual cultured pancreatic islets (>10%>200 μm): 5 points”. Among these, “larger than 200 μm for at least 10% of individual cultured pancreatic islets: 5 points” is most preferable.\nIn the above-described criteria, the shape “flat” means that when a pancreatic islet is considered to be elliptic sphere, the ratio of major axis/minor axis is at least 10, the shape “approximately flat” means that the above-described ratio of major axis/minor axis is at least 5 and less than 10, the shape “irregularly spherical” means that the above-described ratio of major axis/minor axis is at least 2 and less than 5, the shape “approximately spherical” means that the above-described ratio of major axis/minor axis is at least 1.2 and less than 2, and the shape “spherical” means that the above-described ratio of major axis/minor axis is less than 1.2. […]"}, "porcine hepatocyte [4]": {"system": "porcine hepatocyte", "test": "Viability of porcine hepatocyte (live/dead test)", "assay_type": "cell-based", "conditions": "culture without insert, days 1, 7 and 14 of culture", "description": "Therefore, it was clarified that it is more suitable for culture of porcine hepatocyte to use PuraMatrix of SEQ ID NO:1 Since the appended Photographs are converted into white and black two tones, dyed colors are not expressed."}, "[5]": {"conditions": "culture without insert, days 1, 7 and 14"}}}
{"smiles": "CC(=O)N[C@@H](CCCNC(=N)N)C(=O)N[C@@H](C)C(=O)N[C@@H](CC(=O)O)C(=O)N[C@@H](C)C(=O)N[C@@H](CCCNC(=N)N)C(=O)N[C@@H](C)C(=O)N[C@@H](CC(=O)O)C(=O)N[C@@H](C)C(=O)N[C@@H](CCCNC(=N)N)C(=O)N[C@@H](C)C(=O)N[C@@H](CC(=O)O)C(=O)N[C@@H](C)C(=O)N[C@@H](CCCNC(=N)N)C(=O)N[C@@H](C)C(=O)N[C@@H](CC(=O)O)C(=O)N[C@@H](C)C(N)=O", "note": "[Group A, Ac-(RADA)4-CONH2]", "values": [{"measurement": "diazepam metabolic rate as compared with collagen type I (monolayer) (group B), Matrigel (group C) and collagen sandwich (group D)", "setting": "porcine hepatocyte [1]; culture with insert, days 1, 7, 14 and 21", "result": "significantly better"}, {"measurement": "diazepam metabolic rate as compared with collagen type I (monolayer) (group B)", "setting": "porcine hepatocyte [1]; [5]", "result": "significantly better"}, {"measurement": "diazepam metabolic rate as compared with collagen type I (monolayer) (group B) and Matrigel (group C)", "setting": "porcine hepatocyte [1]; [5]", "result": "significantly better"}, {"measurement": "ammonia metabolic rate", "setting": "human hepatocyte [2]; Table 4(a), day 1 of culture", "result": 45.0}, {"measurement": "ammonia metabolic rate", "setting": "human hepatocyte [2]; Table 4(a), day 3 of culture", "result": 32.8}, {"measurement": "ammonia metabolic rate", "setting": "human hepatocyte [2]; Table 4(a), day 5 of culture", "result": 20.4}, {"measurement": "ammonia metabolic rate", "setting": "human hepatocyte [2]; Table 4(b), day 1 of culture", "result": 45.0}, {"measurement": "ammonia metabolic rate", "setting": "human hepatocyte [2]; Table 4(b), day 3 of culture", "result": 32.8}, {"measurement": "ammonia metabolic rate", "setting": "human hepatocyte [2]; Table 4(b), day 5 of culture", "result": 20.4}, {"measurement": "ammonia metabolic rate as compared with collagen type I (monolayer) (group B)", "setting": "human hepatocyte [2]; days 1, 3 and 5", "result": "significantly better"}, {"measurement": "ammonia metabolic rate as compared with collagen type I (monolayer) (group B) and Matrigel (group C)", "setting": "human hepatocyte [2]; days 1, 3 and 5", "result": "significantly better"}, {"measurement": "formation of three-dimensional spheroid by hepatocytes", "setting": "human hepatocyte [3]", "result": "formation of three-dimensional spheroid by hepatocytes was confirmed"}, {"measurement": "production amount of insulin in the culture medium", "setting": "human pancreatic islet; human islets (10 seeded), day 1 of culture, low glucose (100 g/l, 24 hours)", "result": 0.60, "unit": "µg/L"}, {"measurement": "production amount of insulin in the culture medium", "setting": "human pancreatic islet; human islets, day 1 of culture, high glucose (450 g/l, 6 hours)", "result": 1.89, "unit": "µg/L"}, {"measurement": "production amount of insulin in the culture medium", "setting": "human pancreatic islet; human islets, day 1 of culture, low glucose (after), 6 hours", "result": 1.13, "unit": "µg/L"}, {"measurement": "production amount of insulin in the culture medium", "setting": "human pancreatic islet; human islets, day 3 of culture, high glucose (450 g/l, 6 hours)", "result": 1.68, "unit": "µg/L"}, {"measurement": "production amount of insulin in the culture medium", "setting": "human pancreatic islet; human islets, day 3 of culture, low glucose (100 g/l, 24 hours)", "result": 0.58, "unit": "µg/L"}, {"measurement": "production amount of insulin in the culture medium", "setting": "human pancreatic islet; human islets, day 3 of culture, low glucose (after), 6 hours", "result": 1.11, "unit": "µg/L"}, {"measurement": "production amount of insulin in the culture medium", "setting": "human pancreatic islet; human islets, day 5 of culture, high glucose (450 g/l, 6 hours)", "result": 1.43, "unit": "µg/L"}, {"measurement": "production amount of insulin in the culture medium", "setting": "human pancreatic islet; human islets, day 5 of culture, low glucose (100 g/l, 24 hours)", "result": 0.51, "unit": "µg/L"}, {"measurement": "production amount of insulin in the culture medium", "setting": "human pancreatic islet; human islets, day 5 of culture, low glucose (after), 6 hours", "result": 1.10, "unit": "µg/L"}, {"measurement": "production amount of insulin in the culture medium", "setting": "human pancreatic islet; human islets, day 7 of culture, high glucose (450 g/l, 6 hours)", "result": 0.76, "unit": "µg/L"}, {"measurement": "production amount of insulin in the culture medium", "setting": "human pancreatic islet; human islets, day 7 of culture, low glucose (100 g/l, 24 hours)", "result": 0.41, "unit": "µg/L"}, {"measurement": "production amount of insulin in the culture medium", "setting": "human pancreatic islet; human islets, day 7 of culture, low glucose (after), 6 hours", "result": 0.54, "unit": "µg/L"}, {"measurement": "amount of insulin secreted in high glucose concentration (response to glucose concentration)", "setting": "human pancreatic islet; human pancreatic islet, day 7 of culture", "result": "increased"}, {"measurement": "pancreatic islet morphology: 1. shape", "setting": "porcine pancreatic islet", "result": "5 (spherical: 5 points)"}, {"measurement": "pancreatic islet morphology: 2. border shape", "setting": "porcine pancreatic islet", "result": "5 (well-rounded: 5 points)"}, {"measurement": "pancreatic islet morphology: 3. integrity", "setting": "porcine pancreatic islet", "result": "5 (solid/compact: 5 points)"}, {"measurement": "pancreatic islet morphology: sum of the evaluation values", "setting": "porcine pancreatic islet", "result": 18, "unit": "points"}, {"measurement": "viability of porcine hepatocytes (live cells green, dead cells red)", "setting": "porcine hepatocyte [4]", "result": "most cells exhibited a green color"}]}
